# According to the SangsterLogP compilation:
# Assay: method code SF, from DOI: 10.1021/jf00070a034
row,SMILES,logP
1,CNC(=O)Nc1cccc(OC)c1,1.26
2,O=C(Cc1ccccc1)Nc1ccccc1,2.72
3,CCCc1ccc(NC(=O)N(C)C)cc1,2.55
4,CN(C)C(=O)Nc1ccc(Cl)cc1,2.01
5,C=CC(C)C(=O)Nc1ccc(Cl)c(Cl)c1 (stereo not drawn),3.49
6,CN(C)C(=O)Nc1cccc(Cc2ccccc2)c1,2.83
7,CN(C)C(=O)Nc1cccc(CCc2ccccc2)c1,3.21
8,O=C(Cc1ccccc1)Nc1ccc([N+](=O)[O-])cc1,3.17

# Next, values leading:
row,logP,SMILES
1,2.13,CCNc1nc(Cl)nc(NC2CC2)n1
2,2.77,CCNc1nc(Cl)nc(NC2CCC2)n1
3,3.63,CCNc1nc(Cl)nc(NC2CCCCC2)n1
4,3.83,CCCC(C)(C)C(=O)Nc1ccc(Cl)cc1
5,4.48,CC(C)CNC(=O)Nc1ccc(Cl)c(Cl)c1
6,2.85,CCNc1nc(Cl)nc(NCC2CC2)n1
7,2.75,C=CCNc1nc(Cl)nc(NCC=C)n1
8,4.31,CCCC(C)C(=O)Nc1ccc(C)c(Cl)c1 (stereo not drawn)
9,3.6,CC1(NC(=O)Nc2ccccc2)CCCCC1
10,4.74,CCCCCC(C)Nc1nc(Cl)nc(NCC)n1 (stereo not drawn)
